Measured values published in patent publication US10918891B2, “Cosmetic treatment method for the skin” (SYNTIVIA, priority 2016, dated 2021).

System: ELN (Elastin)
Experiment: Elastin immunofluorescence on human skin explants after repeated UVA irradiation
Assay type: cell-based
Conditions: skin explant, (Ia) 100 ppm
Procedure: In these examples, the protective properties of the compound (Ia) against the damage caused to the DNA and to the extracellular matrix by repeated UVA irradiation, are measured on explants of human skin (NATIVESKIN, Genoskin).
Upon reception of the explants, the latter are topically coated with Carbopol® (Lubrizol)+DMSO for the non-UVA control (CTL without stress) and for the control with stress by UVAs (CTL UVA), and with Carbopol®+compound (Ia) at 100 ppm for the test.
Over three days, the cells are subjected to three stresses with UVAs at a rate of 50 joules per square centimetre.
The first irradiation takes place 24 hours after the treatments. The products are present before, during and after the irradiation. The control without stress is wrapped in aluminium and also placed in the irradiator.
During the irradiation, the explants inserted are disposed in a petri dish with PBS. Fresh medium (Genoskin Culture medium) is added after the irradiation.
After the third day of irradiation, the explants are cultivated for 24 hours, then collected and fixed for 48 hours in formalin (Sigma). The samples are included in paraffin and cut.
Marking of the protein elastin is carried out by immunofluorescence on a paraffin section.
The samples are prepared for the fluorescent marking. […]
The sections are mounted on a slide and the fluorescence is quantified using a microscope (Leica DM5000B).

Cc1ncc(CO)c(CNC(=O)/C=C/c2ccc(O)c(O)c2)c1O [Compound (Ia)]
Average fluorescence intensity of the marking ELN (AU) (CTL UVA 145.9, CTL without stress 160.4): 182.4 AU
Cells positive for ELN based on 100% (relative to CTL without stress, CTL UVA −9%): +14%
